For 24 molecules, IC50 results are on record in patent publication US20240398828A1, “HETERO-ATOM CONTAINING COMPOUNDS AND USES THEREOF” (Kumquat Biosciences Inc., priority 2021, published 2024).

The target in one test is T1, PTPN2 (i.e., TC-PTP) (Homo sapiens, UniProt P17706).
T1 sequence (P17706 1-415): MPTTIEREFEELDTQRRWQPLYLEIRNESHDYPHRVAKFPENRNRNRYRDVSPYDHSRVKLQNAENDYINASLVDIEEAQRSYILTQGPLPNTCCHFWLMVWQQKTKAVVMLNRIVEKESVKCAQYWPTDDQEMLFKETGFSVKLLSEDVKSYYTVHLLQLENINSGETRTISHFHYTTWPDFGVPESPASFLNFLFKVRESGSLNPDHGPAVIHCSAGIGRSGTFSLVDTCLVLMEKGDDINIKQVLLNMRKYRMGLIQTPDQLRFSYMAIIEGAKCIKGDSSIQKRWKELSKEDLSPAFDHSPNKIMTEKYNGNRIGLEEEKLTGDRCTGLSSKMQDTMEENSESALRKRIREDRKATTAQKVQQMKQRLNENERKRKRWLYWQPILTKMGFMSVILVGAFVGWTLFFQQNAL
Nature of the test: Phosphatase activity assay (DiFMUP substrate), PTPN2. The format is biochemical. Conditions: compounds binned ≤1 uM or >1 uM. In short, it runs like this:
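RT, HEPES pH 7.5 buffer with DTT/Tween-20. 10-point inhibitor series premixed ~2 min with enzyme (PTPN2 0.025 ng/ul). Start with DiFMUP at enzyme Km (~45 μM for PTPN2). Read DiFMU ex360/em450 continuously 15–30 min; initial rate vs concentration, 4-parameter fit → IC50.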

A further test concerns the target T2, PTPN1 (i.e., PTP1B) (Homo sapiens, UniProt P18031).
T2 sequence (P18031 1-435): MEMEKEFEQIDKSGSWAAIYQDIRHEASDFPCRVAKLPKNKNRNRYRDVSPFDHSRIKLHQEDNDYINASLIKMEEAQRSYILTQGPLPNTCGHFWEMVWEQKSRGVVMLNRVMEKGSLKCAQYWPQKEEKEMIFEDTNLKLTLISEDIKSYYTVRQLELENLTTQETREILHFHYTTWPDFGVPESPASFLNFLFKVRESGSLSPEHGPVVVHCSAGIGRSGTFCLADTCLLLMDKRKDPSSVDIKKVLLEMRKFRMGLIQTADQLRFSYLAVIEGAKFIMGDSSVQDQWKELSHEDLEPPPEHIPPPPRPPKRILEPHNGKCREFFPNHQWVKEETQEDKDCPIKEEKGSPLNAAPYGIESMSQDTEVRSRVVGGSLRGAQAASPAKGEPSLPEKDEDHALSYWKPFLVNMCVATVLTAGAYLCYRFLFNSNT
Nature of the test: Phosphatase activity assay (DiFMUP substrate), PTP1B. Conditions: compounds binned ≤1 uM or >1 uM. The test is classed as biochemical. In short, it runs like this: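 Enzyme (e.g. PTPN2 0.025 ng/ul) mixed about 2 min with compound at 10 serial concentrations in 50 mM HEPES pH 7.5, 150 mM NaCl, 0.5 mM EDTA, 1 mM DTT, 0.001% Tween-20 at room temperature. DiFMUP added at each enzyme's Km (about 45 μM for PTPN2). DiFMU fluorescence (ex 360/em 450 nm) followed 15-30 min; IC50 from 4-parameter fit of rates.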

The IC50 is the concentration at which inhibition is half-maximal. On to `COCCS(=O)(=O)Nc1ccc(-c2ccc(O)c(N3CC(=O)NS3(=O)=O)c2F)cc1` [Compound 443, N-(3′-(1,1-dioxido-4-oxo-1,2,5-thiadiazolidin-2-yl)-2′-fluoro-4′-hydroxy-[1,1′-biphenyl]-4-yl)-2-methoxyethane-1-sulfonamide], for which the IC50 was no more than 1000 nM at PTPN2 (i.e., TC-PTP) and no more than 1000 nM on PTPN1 (i.e., PTP1B).

Take `CC(C)CCn1cc(-c2ccc(O)c(N3CC(=O)NS3(=O)=O)c2F)c(=O)[nH]1` [Compound 444, 5-(2-fluoro-6-hydroxy-3-(1-isopentyl-3-oxo-2,3-dihydro-1H-pyrazol-4-yl)phenyl)-1,2,5-thiadiazolidin-3-one 1,1-dioxide]: the IC50 on PTPN2 (i.e., TC-PTP) is no more than 1000 nM; on PTPN1 (i.e., PTP1B), no more than 1000 nM.

As for `COc1cccc(-n2cnc(-c3ccc(O)c(N4CC(=O)NS4(=O)=O)c3F)c2)c1` [Compound 445, 5-(2-fluoro-6-hydroxy-3-(1-(3-methoxyphenyl)-1H-imidazol-4-yl)phenyl)-1,2,5-thiadiazolidin-3-one 1,1-dioxide], the IC50 on PTPN2 (i.e., TC-PTP) was no more than 1000 nM; at PTPN1 (i.e., PTP1B), no more than 1000 nM.

Turning to `O=C1CN(c2c(O)ccc(-c3cnn(C4CCC(F)(F)CC4)c3)c2F)S(=O)(=O)N1` [Compound 446, 5-(3-(1-(4,4-difluorocyclohexyl)-1H-pyrazol-4-yl)-2-fluoro-6-hydroxyphenyl)-1,2,5-thiadiazolidin-3-one 1,1-dioxide], the 50% inhibitory concentration (IC50) on PTPN2 (i.e., TC-PTP) was no more than 1000 nM; at PTPN1 (i.e., PTP1B), no more than 1000 nM.

For the molecule `CC(C)c1cc(-c2ccc(O)c(N3CC(=O)NS3(=O)=O)c2F)nn1C` [Compound 447, 5-(2-fluoro-6-hydroxy-3-(5-isopropyl-1-methyl-1H-pyrazol-3-yl)phenyl)-1,2,5-thiadiazolidin-3-one 1,1-dioxide], the IC50 was no more than 1000 nM on PTPN2 (i.e., TC-PTP) and no more than 1000 nM at PTPN1 (i.e., PTP1B).

With `O=C1CN(c2c(O)ccc(-c3cc(N4CCC(O)C4)n[nH]3)c2F)S(=O)(=O)N1` (stereo not drawn) [Compound 448, 5-(2-fluoro-6-hydroxy-3-(3-(3-hydroxypyrrolidin-1-yl)-1H-pyrazol-5-yl)phenyl)-1,2,5-thiadiazolidin-3-one 1,1-dioxide], the IC50 was no more than 1000 nM at PTPN2 (i.e., TC-PTP) and no more than 1000 nM on PTPN1 (i.e., PTP1B).

In the case of `O=C1CN(c2c(O)ccc(-c3cccc(NS(=O)(=O)C4CC4)c3)c2F)S(=O)(=O)N1` [Compound 449, N-(3′-(1,1-dioxido-4-oxo-1,2,5-thiadiazolidin-2-yl)-2′-fluoro-4′-hydroxy-[1,1′-biphenyl]-3-yl)cyclopropanesulfonamide], the IC50 on PTPN2 (i.e., TC-PTP) is no more than 1000 nM; at PTPN1 (i.e., PTP1B) it was no more than 1000 nM.

On to `O=C1CN(c2c(O)ccc(C3CCC(NS(=O)(=O)C4CC4)CC3)c2F)S(=O)(=O)N1` (stereo not drawn) [Compound 450, N-(4-(3-(1,1-dioxido-4-oxo-1,2,5-thiadiazolidin-2-yl)-2-fluoro-4-hydroxyphenyl)cyclohexyl)cyclopropanesulfonamide], for which the IC50 on PTPN2 (i.e., TC-PTP) is no more than 1000 nM; at PTPN1 (i.e., PTP1B), no more than 1000 nM.

Consider `O=C1CN(c2c(O)ccc(-c3cc(N4CC(F)(F)C4)n[nH]3)c2F)S(=O)(=O)N1` [Compound 451, 5-(3-(3-(3,3-difluoroazetidin-1-yl)-1H-pyrazol-5-yl)-2-fluoro-6-hydroxyphenyl)-1,2,5-thiadiazolidin-3-one 1,1-dioxide], for which the IC50 at PTPN2 (i.e., TC-PTP) was no more than 1000 nM; on PTPN1 (i.e., PTP1B) it was no more than 1000 nM.

On to `O=C1CN(c2c(O)ccc(-c3cc(CCC4CC4)n[nH]3)c2F)S(=O)(=O)N1` [Compound 452, 5-(3-(3-(2-cyclopropylethyl)-1H-pyrazol-5-yl)-2-fluoro-6-hydroxyphenyl)-1,2,5-thiadiazolidin-3-one 1,1-dioxide], for which the half-maximal inhibitory concentration (IC50) at PTPN2 (i.e., TC-PTP) is no more than 1000 nM; on PTPN1 (i.e., PTP1B), no more than 1000 nM.

As to `O=C1CN(c2c(O)ccc(-c3cn(CC4CCCCC4)cn3)c2F)S(=O)(=O)N1` [Compound 453, 5-(3-(1-(cyclohexylmethyl)-1H-imidazol-4-yl)-2-fluoro-6-hydroxyphenyl)-1,2,5-thiadiazolidin-3-one 1,1-dioxide], the IC50 on PTPN2 (i.e., TC-PTP) was no more than 1000 nM; on PTPN1 (i.e., PTP1B), no more than 1000 nM.

As for `Cc1cc(-c2ccc(O)c(N3CC(=O)NS3(=O)=O)c2F)nn1C` [Compound 454, 5-(3-(1,5-dimethyl-1H-pyrazol-3-yl)-2-fluoro-6-hydroxyphenyl)-1,2,5-thiadiazolidin-3-one 1,1-dioxide], the IC50 on PTPN2 (i.e., TC-PTP) was no more than 1000 nM; at PTPN1 (i.e., PTP1B) it was no more than 1000 nM.

On to `O=C1CN(c2c(O)ccc(-c3cc(CCC4CCCCC4)n[nH]3)c2F)S(=O)(=O)N1` [Compound 455, 5-(3-(3-(2-cyclohexylethyl)-1H-pyrazol-5-yl)-2-fluoro-6-hydroxyphenyl)-1,2,5-thiadiazolidin-3-one 1,1-dioxide], for which the half-inhibitory concentration (IC50) on PTPN2 (i.e., TC-PTP) was no more than 1000 nM; at PTPN1 (i.e., PTP1B), no more than 1000 nM.

Consider `O=C1CN(c2c(O)ccc(-c3cnn(C4CCCOCC4)c3)c2F)S(=O)(=O)N1` (stereo not drawn) [Compound 456, 5-(2-fluoro-6-hydroxy-3-(1-(oxepan-4-yl)-1H-pyrazol-4-yl)phenyl)-1,2,5-thiadiazolidin-3-one 1,1-dioxide], for which the IC50 on PTPN2 (i.e., TC-PTP) was no more than 1000 nM; at PTPN1 (i.e., PTP1B) it was no more than 1000 nM.

With `O=C1CN(c2c(O)ccc(-c3cn(Cc4cccnc4)cn3)c2F)S(=O)(=O)N1` [Compound 457, 5-(2-fluoro-6-hydroxy-3-(1-(pyridin-3-ylmethyl)-1H-imidazol-4-yl)phenyl)-1,2,5-thiadiazolidin-3-one 1,1-dioxide], the IC50 at PTPN2 (i.e., TC-PTP) is no more than 1000 nM; on PTPN1 (i.e., PTP1B), no more than 1000 nM.

Regarding `O=C1CN(c2c(O)ccc(-n3cc(C4CC4)c(O)n3)c2F)S(=O)(=O)N1` [Compound 458, 5-(3-(4-cyclopropyl-3-hydroxy-1H-pyrazol-1-yl)-2-fluoro-6-hydroxyphenyl)-1,2,5-thiadiazolidin-3-one 1,1-dioxide], the IC50 on PTPN2 (i.e., TC-PTP) was no more than 1000 nM; at PTPN1 (i.e., PTP1B) it was no more than 1000 nM.

As for `O=C1CN(c2c(O)ccc(-c3cn(C4CCCCC4)cn3)c2F)S(=O)(=O)N1` [Compound 459, 5-(3-(1-cyclohexyl-1H-imidazol-4-yl)-2-fluoro-6-hydroxyphenyl)-1,2,5-thiadiazolidin-3-one 1,1-dioxide], the IC50 is no more than 1000 nM on PTPN2 (i.e., TC-PTP) and no more than 1000 nM on PTPN1 (i.e., PTP1B).

In the case of `O=C1CN(c2c(O)ccc(-c3cc(C(=O)NC4CC4)n[nH]3)c2F)S(=O)(=O)N1` [Compound 460, N-cyclopropyl-5-(3-(1,1-dioxido-4-oxo-1,2,5-thiadiazolidin-2-yl)-2-fluoro-4-hydroxyphenyl)-1H-pyrazole-3-carboxamide], the 50% inhibitory concentration (IC50) at PTPN2 (i.e., TC-PTP) was greater than 1000 nM; at PTPN1 (i.e., PTP1B), no more than 1000 nM.

Regarding `CC(C)N1CC=C(c2ccc(O)c(N3CC(=O)NS3(=O)=O)c2F)C1` [Compound 461, 5-(2-fluoro-6-hydroxy-3-(1-isopropyl-2,5-dihydro-1H-pyrrol-3-yl)phenyl)-1,2,5-thiadiazolidin-3-one 1,1-dioxide], the IC50 on PTPN2 (i.e., TC-PTP) is no more than 1000 nM; at PTPN1 (i.e., PTP1B), no more than 1000 nM.

As to `CC(O)c1cc(-c2ccc(O)c(N3CC(=O)NS3(=O)=O)c2F)[nH]n1` (stereo not drawn) [Compound 462, 5-(2-fluoro-6-hydroxy-3-(3-(1-hydroxyethyl)-1H-pyrazol-5-yl)phenyl)-1,2,5-thiadiazolidin-3-one 1,1-dioxide], the IC50 was no more than 1000 nM on PTPN2 (i.e., TC-PTP) and no more than 1000 nM at PTPN1 (i.e., PTP1B).

`Cn1nc(-c2ccc(O)c(N3CC(=O)NS3(=O)=O)c2F)cc1CCC1CC1` [Compound 463, 5-(3-(5-(2-cyclopropylethyl)-1-methyl-1H-pyrazol-3-yl)-2-fluoro-6-hydroxyphenyl)-1,2,5-thiadiazolidin-3-one 1,1-dioxide]: the IC50 at PTPN2 (i.e., TC-PTP) is no more than 1000 nM; at PTPN1 (i.e., PTP1B), no more than 1000 nM.

Consider `O=C1CN(c2c(O)ccc(-c3cc(CCCC4CC4)n[nH]3)c2F)S(=O)(=O)N1` [Compound 464, 5-(3-(3-(3-cyclopropylpropyl)-1H-pyrazol-5-yl)-2-fluoro-6-hydroxyphenyl)-1,2,5-thiadiazolidin-3-one 1,1-dioxide], for which the IC50 on PTPN2 (i.e., TC-PTP) is no more than 1000 nM; at PTPN1 (i.e., PTP1B), no more than 1000 nM.

For `O=C1CN(c2c(O)ccc(-c3cnn(C4CC5CCC(C4)O5)c3)c2F)S(=O)(=O)N1` (stereo not drawn) [Compound 465, 5-(3-(1-(8-oxabicyclo[3.2.1]octan-3-yl)-1H-pyrazol-4-yl)-2-fluoro-6-hydroxyphenyl)-1,2,5-thiadiazolidin-3-one 1,1-dioxide], the IC50 on PTPN2 (i.e., TC-PTP) is no more than 1000 nM; on PTPN1 (i.e., PTP1B), no more than 1000 nM.

Turning to `O=C1CN(c2c(O)ccc(-c3cc(N4CC5(COC5)C4)n[nH]3)c2F)S(=O)(=O)N1` [Compound 466, 5-(3-(3-(2-oxa-6-azaspiro[3.3]heptan-6-yl)-1H-pyrazol-5-yl)-2-fluoro-6-hydroxyphenyl)-1,2,5-thiadiazolidin-3-one 1,1-dioxide], the IC50 on PTPN2 (i.e., TC-PTP) was no more than 1000 nM; at PTPN1 (i.e., PTP1B) it was no more than 1000 nM.
